Patent US20250346582A1, “SPLEEN TYROSINE KINASE INHIBITORS AND METHODS OF USE THEREOF” (THE BOARD OF TRUSTEES OF THE UNIVERSITY OF ILLINOIS, priority 2022, published 2025)

Assays:
Format in all cases: cell-based
[1] = tested on: phosphorylation of Syk, STAT3/5 and ERK1/2; assay: Western blot of IgG2-stimulated phosphorylation in MV4-11 AML cells; settings: MV4-11 cells, 5 μM overnight
Description: FIGS. 2A-2D show the inhibition of the signaling activity and proliferation of MV4-11 AML cells by Syk-cSH2 inhibitors. […] GAPDH was used as a gel loading control. […] Imax and IC50 values were determined by non-linear least-squares analysis of data using the equation: I=Imax/(1+IC50/[inhibitor]) where I indicates % inhibition at a given inhibitor concentration ([inhibitor]). (c) Inhibition of IgG2-stimulated phosphorylation of Syk, STAT3/STAT5 and ERK1/2 in entospletinib-resistant MV-4-11 cells by 5 μM of WC35, WC36, and WC38.
(§1) Cells were seeded at a density of 3.0×10^5 cells/well prior to incubation with inhibitors. Cells were incubated with 1-5 μM of Syk inhibitors overnight and stimulated with different antibodies: IgG2 for AML cells, IgM for Raji B cells, and OKT3 (Biolegend) for Jurkat cells. The cells were lysed in NP40 lysis buffer (50 mM Tris, pH 7.5, 150 mM NaCl, 1 mM EDTA, 1% NP40, 10% glycerol, 10 mM NaF, 10 mM Na3VO4, and the protease inhibitor cocktail) at 4° C. and the cell debris was removed by centrifugation. Samples were analyzed by SDS-PAGE. Proteins were separated and transferred to Immobilon-P polyvinylidene difluoride membrane (Millipore Sigma). The membrane was blocked with 5% bovine serum albumin for 1 h and incubated overnight at 4° C. with various antibodies (1:1000 dilution for all antibodies). After the unbound antibodies were removed by washing with 0.1% Tris buffer saline with 0.1% Tween20, the membranes were incubated with the horseradish peroxidase secondary antibody (1:5000 dilution) for 1 h at room temperature. The membranes were washed three more times with 0.1% Tris buffer saline with 0.1% Tween20 to remove the unbound horseradish peroxidase secondary antibody before imaging. The chemiluminescence intensity of protein bands in the gel was analyzed and documented by the Azure 500Q Imaging System.

[2] = tested on: phosphorylation of Syk, ERK1/2 and STAT3/5; assay: Western blot of phosphorylation in entospletinib-resistant MV4-11 cells; settings: 5 μM
Description: as §1
Then the concentration was maintained at 5 μM.

pZAP70 = target: T1, pZAP70 (Homo sapiens, UniProt P43403); assay: Western blot inhibition of ZAP70 phosphorylation in Jurkat T cells; settings: for Emax: Immunoblotting, pZAP70, Western blot assay in Jurkat T cells, read-out: Imax (%); for inhibition of ZAP-70 phosphorylation: Jurkat T cells stimulated by OKT3, 5 μM overnight
T1 construct: host or cells: Jurkat T cells, OKT3-stimulated
T1 sequence (P43403 1-619): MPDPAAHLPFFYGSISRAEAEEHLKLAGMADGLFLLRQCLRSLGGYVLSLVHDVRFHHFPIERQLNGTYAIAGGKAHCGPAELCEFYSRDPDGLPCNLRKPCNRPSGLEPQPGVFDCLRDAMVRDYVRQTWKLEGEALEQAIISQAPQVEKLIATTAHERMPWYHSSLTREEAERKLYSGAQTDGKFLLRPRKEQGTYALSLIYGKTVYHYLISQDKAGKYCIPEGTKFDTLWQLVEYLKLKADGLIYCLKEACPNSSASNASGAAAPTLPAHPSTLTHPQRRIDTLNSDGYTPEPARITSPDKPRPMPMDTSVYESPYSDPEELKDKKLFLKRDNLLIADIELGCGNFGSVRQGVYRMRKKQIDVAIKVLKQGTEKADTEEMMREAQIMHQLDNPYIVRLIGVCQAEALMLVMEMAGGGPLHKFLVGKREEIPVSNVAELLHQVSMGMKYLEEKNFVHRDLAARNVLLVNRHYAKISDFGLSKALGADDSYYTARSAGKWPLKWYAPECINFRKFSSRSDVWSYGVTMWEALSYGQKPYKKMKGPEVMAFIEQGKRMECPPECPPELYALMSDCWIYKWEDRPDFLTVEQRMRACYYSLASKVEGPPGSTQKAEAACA
Description: (§2) (a) Cellular efficacy of WC35, WC36, and WC38 was determined by dose-dependent inhibition of Syk phosphorylation in Raji B cells. (b) Imax and IC50 values were determined by non-linear least-squares analysis of data using the equation: […] Each data represents average ±s.d. from triplicate measurements. […] Jurkat T cells were stimulated by OKT3. Cells were seeded at a density of 3.0×10^5 cells/well prior to incubation with inhibitors. […] IgG2 for AML cells, IgM for Raji B cells, and OKT3 (Biolegend) for Jurkat cells. […] Samples were analyzed by SDS-PAGE. Proteins were separated and transferred to Immobilon-P polyvinylidene difluoride membrane (Millipore Sigma). […] The chemiluminescence intensity of protein bands in the gel was analyzed and documented by the Azure […] Imaging System.

pSyk = target: T2, pSyk (Homo sapiens, UniProt P43405); assay: Western blot inhibition of Syk phosphorylation in Raji B cells; settings: Immunoblotting, Western blot assay in Raji B cells
T2 construct: endogenous in cells; host or cells: Raji B cells, IgM-stimulated
Description: as §2

## [N-]=[N+]=C(C(=O)OC1CCCCC1)C(Nc1ncccn1)c1ccco1 (racemic) [WC35, Cyclohexyl 2-diazo-3-(furan-2-yl)-3-(pyrimidin-2-ylamino)propanoate]
[1]
  inhibition of phosphorylation of Syk, STAT3/5 and ERK1/2: less active than entospletinib for both Syk and ERK1/2 inhibition
[2]
  inhibition of phosphorylation of Syk, ERK1/2 and STAT3/5: significantly less active than WC36
pZAP70
  Emax: < 10%
  inhibition of ZAP-70 phosphorylation: did not inhibit phosphorylation and activation of ZAP-70
pSyk
  IC50: 180 ± 50 nM
  Imax (%): 58 ± 5%

## [N-]=[N+]=C(C(=O)OC1CCCCC1)C(Nc1ncccn1)c1c[nH]c2ccccc12 (racemic) [WC36, Cyclohexyl 2-diazo-3-(1H-indol-3-yl)-3-(pyrimidin-2-ylamino)propanoate]
[1]
  inhibition of phosphorylation of Syk, STAT3/5 and ERK1/2: suppressed phosphorylation of Syk and STAT3/5 as potently as entospletinib but were modestly less active than entospletinib for ERK1/2 inhibition
[2]
  inhibition of phosphorylation of Syk, ERK1/2 and STAT3/5: potently suppressed the phosphorylation and activation of Syk, ERK1/2, and STAT3/5
pZAP70
  Emax: < 10%
  inhibition of ZAP-70 phosphorylation: did not inhibit phosphorylation and activation of ZAP-70
pSyk
  IC50: 52 ± 10 nM
  Imax (%): 67 ± 5%

## [N-]=[N+]=C(C(=O)OC1CCCCC1)C(Nc1ncccn1)c1ccc[nH]1 (racemic) [WC38, Cyclohexyl 2-diazo-3-(pyrimidin-2-ylamino)-3-(1H-pyrrol-2-yl)propanoate]
[1]
  inhibition of phosphorylation of Syk, STAT3/5 and ERK1/2: suppressed phosphorylation of Syk and STAT3/5 as potently as entospletinib but were modestly less active than entospletinib for ERK1/2 inhibition
[2]
  inhibition of phosphorylation of Syk, ERK1/2 and STAT3/5: significantly less active than WC36
pZAP70
  Emax: < 10%
  inhibition of ZAP-70 phosphorylation: did not inhibit phosphorylation and activation of ZAP-70
pSyk
  IC50: 180 ± 30 nM
  Imax (%): 65 ± 3%
